We go through three molecules from BindingDB's records for patent US20240150293 (Les Laboratoires Servier, 2024).

Broadly, the Ki is a dissociation constant, usually derived from enzyme kinetics or from competition with a known ligand.

The experiment deals with T1, Induced myeloid leukemia cell differentiation protein Mcl-1 [C286S] (Homo sapiens, UniProt Q07820, C286S).
T1 construct: gene MCL1
T1 sequence (Q07820 whole entry C286S, looked up): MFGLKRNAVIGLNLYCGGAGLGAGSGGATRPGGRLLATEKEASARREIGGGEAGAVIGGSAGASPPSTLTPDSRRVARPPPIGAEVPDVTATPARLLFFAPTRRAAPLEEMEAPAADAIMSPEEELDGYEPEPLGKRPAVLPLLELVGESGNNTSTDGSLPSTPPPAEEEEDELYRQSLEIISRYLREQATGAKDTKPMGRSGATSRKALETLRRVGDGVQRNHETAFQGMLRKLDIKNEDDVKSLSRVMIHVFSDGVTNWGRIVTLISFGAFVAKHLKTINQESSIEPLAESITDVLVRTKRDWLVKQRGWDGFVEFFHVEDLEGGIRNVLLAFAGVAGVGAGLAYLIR
Briefly: Method B: Inhibition of Mcl-1 by the Fluorescence Quenching Assay. As to the method:
The addition of a compound which binds competitively to the same site as the peptide will result in an increase in the fluorescence intensity of the protein due to displacement of the fluorescence quencher. An 11-point serial dilution of each compound was prepared in DMSO, the final buffer conditions were 10 mM 4-(2-hydroxyethyl)-1-piperazineethanesulfonic acid [HEPES], 150 mM NaCl, 0.05% Tween 20, pH 7.4 and 5% DMSO. The final protein concentration in the assay was 1 nM with the peptide present at 10, 20 or 400 nM. The experiments were incubated for 2 hours at room temperature before fluorescence intensity was measured on a Biotek SynergyNeo plate reader (Excitation 620 nm, emission 680 nm). The dose response curves were plotted with XL-Fit software using a 4-Parameter Logistic Model (Sigmoidal DoseResponse Model) and the inhibitory concentrations that gave a 50% increase in fluorescence intensity was determined (IC50). The Ki values were determined from the IC50 values according to Cer et al, Nucleic Acids Res, 2009, 37 (WebServer issue): W441-W445. Inhibition constants (Ki) are determined from complete binding inhibition curves (cKi) or from estimated from incomplete binding inhibition curves (eKi) in most cases due to low activity.
Consider `C[C@@H](COc1ccnc2[nH]ccc12)C[C@H]1Cc2ccccc2[C@]12CC[C@@](Nc1cccc(Cl)c1)(C(=O)O)CC2` [US20240150293, Example 626], for which the inhibitory constant (Ki) was determined as 3.91 nM.
With `C[C@@H](COc1cccc2ncsc12)C[C@H]1Cc2ccccc2[C@]12CC[C@@](Nc1cccc(Cl)c1)(C(=O)O)CC2` [US20240150293, Example 625], the Ki worked out at 37.7 nM.
Then `CCC1CC(O)c2nccc(OC[C@H](C)C[C@H]3Cc4ccccc4[C@]34CC[C@@](Nc3cccc(Cl)c3)(C(=O)O)CC4)c21` (stereo partly drawn) [US20240150293, Example 624], with 4.48 nM.
